Source: US8461328B2, “Tricyclic heterocyclic compounds, compositions and methods of use thereof” (Genentech, Inc., priority 2010, dated 2013)

What was measured:
Format in all cases: biochemical
JAK2 = target: T1, JAK2 (Homo sapiens, UniProt O60674); experiment: JAK2 inhibition (Table 4); details: read-out: JAK2 Ki
T1 construct: made in house; host or cells: SF9 insect cells (baculovirus)

JAK3 = target: T2, JAK3 (Homo sapiens, UniProt P52333); experiment: JAK3 inhibition (Table 4); details: read-out: JAK3 Ki
T2 construct: made in house; host or cells: SF9 insect cells (baculovirus)
T2 sequence (P52333 783-1124): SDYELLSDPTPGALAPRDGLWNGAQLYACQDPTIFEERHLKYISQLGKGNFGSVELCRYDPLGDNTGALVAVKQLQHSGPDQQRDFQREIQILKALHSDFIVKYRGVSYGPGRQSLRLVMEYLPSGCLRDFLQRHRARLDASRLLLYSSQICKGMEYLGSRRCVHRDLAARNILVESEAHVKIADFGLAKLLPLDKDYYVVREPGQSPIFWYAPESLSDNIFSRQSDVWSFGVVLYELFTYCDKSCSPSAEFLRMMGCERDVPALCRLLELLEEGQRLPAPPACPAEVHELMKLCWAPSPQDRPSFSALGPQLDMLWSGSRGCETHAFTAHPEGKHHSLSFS

JAK1 = target: T3, JAK1 (Homo sapiens, UniProt P23458); experiment: JAK1 inhibition (Table 4); details: read-out: JAK1 Ki
T3 construct: made in house; host or cells: SF9 insect cells (baculovirus)
T3 sequence (P23458 852-1154): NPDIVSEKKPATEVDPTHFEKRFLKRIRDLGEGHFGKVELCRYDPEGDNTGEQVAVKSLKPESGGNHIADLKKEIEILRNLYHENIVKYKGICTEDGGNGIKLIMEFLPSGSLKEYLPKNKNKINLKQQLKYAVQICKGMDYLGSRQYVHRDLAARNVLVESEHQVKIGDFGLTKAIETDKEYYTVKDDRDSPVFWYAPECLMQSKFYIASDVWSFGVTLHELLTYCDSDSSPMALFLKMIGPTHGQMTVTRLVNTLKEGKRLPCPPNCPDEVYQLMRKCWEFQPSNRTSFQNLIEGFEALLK

TYK2 = target: T4, TYK2 (Homo sapiens, UniProt P29597); experiment: TYK2 inhibition (Table 4)
T4 construct: made in house; host or cells: SF9 insect cells (baculovirus)
T4 sequence (P29597 873-1187): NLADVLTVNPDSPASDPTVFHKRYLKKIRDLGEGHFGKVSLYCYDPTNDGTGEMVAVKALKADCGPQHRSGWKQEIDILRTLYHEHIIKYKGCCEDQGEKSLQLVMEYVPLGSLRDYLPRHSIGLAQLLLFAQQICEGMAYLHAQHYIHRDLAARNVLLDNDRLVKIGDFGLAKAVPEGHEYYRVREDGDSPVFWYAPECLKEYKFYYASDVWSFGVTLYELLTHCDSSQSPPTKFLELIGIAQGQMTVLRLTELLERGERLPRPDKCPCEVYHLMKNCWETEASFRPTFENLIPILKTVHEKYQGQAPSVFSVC

T1 sequence (O60674 812-1132): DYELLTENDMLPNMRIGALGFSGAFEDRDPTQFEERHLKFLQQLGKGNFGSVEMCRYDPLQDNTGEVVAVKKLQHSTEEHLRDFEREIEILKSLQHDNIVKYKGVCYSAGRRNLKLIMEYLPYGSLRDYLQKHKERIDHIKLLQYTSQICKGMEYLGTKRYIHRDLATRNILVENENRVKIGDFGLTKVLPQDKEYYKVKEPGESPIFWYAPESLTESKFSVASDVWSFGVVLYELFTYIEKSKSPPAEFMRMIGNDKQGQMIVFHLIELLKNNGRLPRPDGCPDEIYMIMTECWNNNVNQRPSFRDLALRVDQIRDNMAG

Ki (JAK2) [nM] | Ki (JAK3) [nM] | Ki (JAK1) [nM] | Ki (TYK2) [nM] | Structure (SMILES)
7.88 | 55.9 | 1.89 | 92.7 | CC(C)CC(=O)N[C@H]1CC[C@H](n2cnc3cnc4[nH]ccc4c32)CC1 [Example 215, 3-Methyl-N-[4-(6H-1,2,3,5,6-tetraaza-as-indacen-1-yl)-cyclohexyl]-butyramide]
48.7 | 6.79 | 3.6 | 608 | O=C(Cc1nc2cnc3[nH]ccc3c2n1C1CCN(Cc2ccccc2)CC1)N1CCC(F)(F)CC1 [Example 217, 2-[1-(1-Benzyl-piperidin-4-yl)-1,6-dihydro-1,3,5,6-tetraaza-as-indacen-2-yl)-1-(4,4-difluoro-piperidin-1-yl)-ethanone]
6.07 | 76.4 | 6.79 | 33.9 | O=C(N[C@H]1CC[C@H](n2cnc3cnc4[nH]ccc4c32)CC1)c1ccccc1 [Example 218, N-[4-(6H-1,3,5,6-Tetraaza-as-indacen-1-yl)-cyclohexyl]-benzamide]
7.43 | 28.3 | 3.31 | 29.3 | O=C(CC1CC1)N1CCC[C@@H](n2cnc3cnc4[nH]ccc4c32)C1 [Example 220, 2-Cyclopropyl-1-[(R)-3-(6H-1,3,5,6-tetraaza-as-indacen-1-yl)-piperidin-1-yl]-ethanone]
3.92 | 8.12 | 2.52 | 9.37 | N#CC1(C(=O)N2CCC[C@@H](n3cnc4cnc5[nH]ccc5c43)C2)CC1 [Example 221, 1-[(R)-3-(6H-1,3,5,6-Tetraaza-as-indacen-1-yl)-piperidine-1-carbonyl]-cyclopropanecarbonitrile]
29.1 | 48.1 | 13.8 | 555 | O=C(Cc1ccccc1)N1CCC[C@@H](n2cnc3cnc4[nH]ccc4c32)C1 [Example 222, 2-Phenyl-1-[(R)-3-(6H-1,3,5,6-tetraaza-as-indacen-1-yl)-piperidin-1-yl]-ethanone]
24.4 | 8.11 | 3.74 | 1470 | CC(C)c1nc2cnc3[nH]ccc3c2n1C1CCN(Cc2ccccc2)CC1 [Example 223, 1-(1-Benzyl-piperidin-4-yl)-2-isopropyl-1,6-dihydro-1,3,5,6-tetraaza-as-indacene]
59.2 | 20.6 | 14.2 | 1980 | CC(C)Cc1nc2cnc3[nH]ccc3c2n1C1CCN(Cc2ccccc2)CC1 [Example 224, 1-(1-Benzyl-piperidin-4-yl)-2-isobutyl-1,6-dihydro-1,3,5,6-tetraaza-as-indacene]
127 | 118 | 59.6 | 817 | O=C(CN1CCC[C@@H](n2cnc3cnc4[nH]ccc4c32)C1)c1ccccc1 [Example 225, 1-Phenyl-2-[(R)-3-(6H-1,3,5,6-tetraaza-as-indacen-1-yl)-piperidin-1-yl]-ethanone]
18.1 | 78.5 | 16.2 | 82.1 | CC1(C)CC1C(=O)N1CCC[C@@H](n2cnc3cnc4[nH]ccc4c32)C1 (stereo partly drawn) [Example 226, (2,2-Dimethyl-cyclopropyl)-[(R)-3-(6H-1,3,5,6-tetraaza-as-indacen-1-yl)-piperidin-1-yl]-methanone]
3.16 | 83 | 6.41 | 12.5 | CC1(C(=O)N2CCC[C@@H](n3cnc4cnc5[nH]ccc5c43)C2)CC1 [Example 227, (1-Methyl-cyclopropyl)-[(R)-3-(6H-1,3,5,6-tetraaza-as-indacen-1-yl)-piperidin-1-yl]-methanone]
5.99 | 118 | 15.8 | 43.4 | O=C(N1CCC[C@@H](n2cnc3cnc4[nH]ccc4c32)C1)C1(C(F)(F)F)CC1 [Example 228, [(R)-3-(6H-1,3,5,6-tetraaza-as-indacen-1-yl)-piperidin-1-yl]-(1-trifluoromethyl-cyclopropyl)-methanone]
395 | 1140 | 86.6 | 1030 | c1cc2c(ncc3nnn(C4CCNCC4)c32)[nH]1 [Example 231]
3.35 | 53.4 | 2.03 | 19.3 | N#CCCN1CCC(n2nnc3cnc4[nH]ccc4c32)CC1 [Example 232, 3-[4-(6H-1,2,3,5,6-Pentaaza-as-indacen-1-yl)-piperidin-1-yl]-propionitrile]
7.84 | 250 | 4.96 | 77.1 | CS(=O)(=O)N1CCC(n2nnc3cnc4[nH]ccc4c32)CC1 [Example 233, 1-(1-Methanesulfonyl-piperidin-4-yl)-1,6-dihydro-1,2,3,5,6-pentaaza-as-indacene]
179 | 132 | 63.3 | 1760 | c1ccc(CCN2CCC[C@@H](n3cnc4cnc5[nH]ccc5c43)C2)cc1 [Example 234, 1-((R)-1-Phenthyl-piperidin-3-yl)-1,6-dihydro-1,3,5,6-tetraaza-as-indacene]
126 | 128 | 7.66 | 61.5 | OCc1nc2cnc3[nH]ccc3c2n1C1CCNCC1 [Example 236, (1-Piperidin-4-yl-1,6-dihydro-1,3,5,6-tetraaza-as-indacen-2-yl)-methanol]
26 | 85.2 | 29.3 | 171 | Cc1nc2cnc3[nH]ccc3c2n1[C@@H]1CCCN(Cc2ccccc2)C1 [Example 238, (R)-1-(1-Benzyl-piperidin-3-yl)-2-methyl-1,6-dihydro-1,3,5,6-tetraaza-as-indacene]
5.1 | 10.4 | 1.53 | 7.39 | N#CCCN1CCC(n2c(CO)nc3cnc4[nH]ccc4c32)CC1 [Example 239, 3-[4-(2-Hydroxymethyl-6H-1,3,5,6-tetraaza-as-indacen-1-yl)-piperidin-1-yl]-propionitrile]
56 | 7.35 | 6.92 | 72.7 | N#CCCN1CCC(n2c(CC(=O)N3CCC(F)(F)CC3)nc3cnc4[nH]ccc4c32)CC1 [Example 240, 3-(4-{2-[2-(4,4-Difloro-piperidin-1-yl)-2-oxo-ethyl]-6H-1,3,5,6-tetraaza-as-indacen-1-yl)-piperidin-1-yl]-propionitrile]
311 | 4060 | 217 | 2560 | CC(C)(C)OC(=O)N1CCC[C@@H]1C(=O)N1CCC(n2cnc3cnc4[nH]ccc4c32)CC1 [Example 242, (R)-2-[4-(6H-1,3,5,6-Tetraaza-as-indacen-1-yl)-piperidine-1-carbonyl]-pyrrolidine-1-carboxylic acid tert-butyl ester]
43.1 | 19.4 | 9.84 | 468 | NC(=O)Cc1nc2cnc3[nH]ccc3c2n1C1CCN(Cc2ccccc2)CC1 [Example 245, 2-[1-(1-Benzyl-piperidin-4-yl)-1,6-dihydro-1,3,5,6-tetraaza-as-indacen-2-yl]-acetamide]
183 | 652 | 164 | 1620 | O=C([C@H]1CC[C@H](n2nnc3cnc4[nH]ccc4c32)CC1)N1CCOCC1 [Example 246, Morpholin-4-yl-[4-(6H-1,2,3,5,6-pentaaza-as-indacen-1-yl)-cyclohexyl]-methanone]
136 | 245 | 32.2 | 358 | CC(C)NC(=O)[C@H]1CC[C@H](n2cnc3cnc4[nH]ccc4c32)CC1 [Example 247, 4-(6H-1,3,5,6-Tetraaza-as-indacen-1-yl)-cyclohexanecarboxylic acid isopropylamide]
342 | 1160 | 216 | 3190 | O=C([C@H]1CCCN1)N1CCC(n2cnc3cnc4[nH]ccc4c32)CC1 [Example 248, (R)-Pyrrolidin-2-yl-[4-(6H-1,3,5,6-tetraaza-as-indacen-1-yl)-piperidin-1-yl]-methanone]
365 | 1180 | 48.6 | 1110 | O=C([C@@H]1CCCN1)N1CCC(n2cnc3cnc4[nH]ccc4c32)CC1 [Example 249, (S)-Pyrrolidin-2-yl-[4-(6H-1,3,5,6-tetraaza-as-indacen-1-yl)-piperidin-1-yl]-methanone]
64.7 | 336 | 29 | 300 | O=C([C@@H]1CC(F)(F)CN1)N1CCC(n2cnc3cnc4[nH]ccc4c32)CC1 [Example 250, ((S)-4,4-Difluoro-pyrrolidin-2-yl)-[4-(6H-1,3,5,6-tetraaza-as-indacen-1-yl)-piperidin-1-yl]-methanone]
568 | 234 | 69.5 | 1500 | FC(F)(F)c1nc2cnc3[nH]ccc3c2n1C1CCNCC1 [Example 254, 1-Piperidin-4-yl-2-trifluoromethyl-1,6-dihydro-1,3,5,6-tetraaza-as-indacene]
490 | 479 | 278 | 1120 | c1cc2c(ncc3ncn(CC4CCNCC4)c32)[nH]1 [Example 255, 1-Piperidin-4-ylmethyl-1,6-dihydro-1,3,5,6-tetraaza-as-indacene]
9.21 | 9.96 | 7.86 | 68.8 | N#CCCN1CCC(n2c(C(F)(F)F)nc3cnc4[nH]ccc4c32)CC1 [Example 256, 3-[4-(-2-Trifluoromethyl-6H-1,3,5,6-tetraaza-as-indacen-1-yl)-piperidin-1-yl]-propionitrile]
